Like-named read-outs stand apart in the source and are kept apart here. No end group written: not given here.
Key:
[1] = tested on: HEK293AD cells; experiment: Whole-cell patch-clamp, leak current in HEK293AD cells (QPatch 16X); format: cell-based
Experimental: The mature peptide of XYTX1-Xa1a shares a similar primary structure with Xac-1, Xac-2 and melectin. […] We hypothesised that XYTX1-Xa1a would share the same activity. We tested, by whole-cell patch-clamp electrophysiology, the capacity of XYTX1-Xa1a to directly induce leak currents in cell membranes. For these experiments we used HEK293AD cells, which lack appreciable expression of the ion channels found in neurons. At 4 min after application of XYTX1-Xa1a (30 μM) we recorded leak currents at test potentials ranging from − 60 to + 60 mV in 10-mV increments from a holding potential of 0 mV every 6 s. At + 60 mV, we recorded currents of 3.3 ± 0.6 nA (mean ± SEM, n = 6 cells) compared with 0.08 ± 0.02 nA (n = 5 cells) for time-matched negative controls (application of extracellular solution (ECS)) (Fig. 3a–c).
(a) Representative current traces in HEK293AD cells at voltages of − 60 to + 60 mV (10 mV steps) acquired before application and 2 min after application of (a) extracellular solution (ECS) or (b) 30 μM XYTX1-Xa1a. […] Data are expressed as mean ± SEM (n = 5–6 cells) and fitted to a simple linear regression. […]
HEK293AD cells (American Type Culture Collection) were cultured as previously described. […] From a holding potential of 0 mV each recorded cell was subjected to a series of 50-ms voltage pulses that ranged from − 60 to + 60 mV in 10-mV increments. […]

[2] = tested on: F11 cells; format: cell-based, mouse neuroblastoma × rat DRG cell line; conditions: FLIPR, Calcium 4; peptide in PSS + 0.1% BSA, 300 s; mean ± SEM, n = 6; read-out: EC50, increase of [Ca2+]i in F11 cells
Experimental: F11 (mouse neuroblastoma × DRG neuron hybrid; European Collection of Authenticated Cell Cultures) were cultured as previously described. Cells were maintained on Ham’s F12 media supplemented with 10% FBS, 100 µM hypoxanthine, 0.4 µM aminopterin, and 16 µM thymidine (Hybri-Max, Sigma Aldrich). 384-well imaging plates (Corning, Lowell, MA, USA) were seeded 24 h prior to calcium imaging, resulting in ~ 90% confluence at the time of imaging. Cells were loaded for 30 min at 37 °C with Calcium 4 assay component A in physiological salt solution (PSS; 140 mM NaCl, 11.5 mM D-glucose, 5.9 mM KCl, 1.4 mM MgCl2, 1.2 mM NaH2PO4, 5 mM NaHCO3, 1.8 mM CaCl2, 10 mM HEPES) according to the manufacturer’s instructions (Molecular Devices, Sunnyvale, CA). Ca^2+ responses were measured using a FLIPR^TETRA fluorescent plate reader equipped with a CCD camera (Ex: 470 to 490 nm, Em: […]) (Molecular Devices, Sunnyvale, CA). Signals were read every second for 10 s before, and 300 s after, the addition of peptide (in PSS supplemented with 0.1% BSA).
Data were plotted and analysed using Prism v9.0.0 (GraphPad Software, San Diego, CA, USA). For calcium imaging experiments of mouse DRG neurons and F11 cells, treatment groups were compared using unpaired t-tests. […]

[3] = tested on: mice; format: in vivo, male C57BL/6J mice; conditions: for pain behaviours on co-injection with venom PLA2: 200 pmol + venom PLA2 (20 pmol); for spontaneous pain behaviours: 200 pmol alone, 20 µL
[4] = tested on: mice; experiment: Paw swelling (paw thickness) after intraplantar injection; format: in vivo, male C57BL/6J mice; conditions: 200 pmol + venom PLA2 (20 pmol)
[5] = cited from earlier work
From the text: By far the most studied bee venom is that of the Western honeybee Apis mellifera. Its venom is dominated by a 26-residue cysteine-free amphipathic peptide known as melittin which makes up 40–60% of the dry weight of the venom. Another major components is venom phospholipase-A2 (PLA2; 10–12% dry weight), with smaller amounts of histamine (5–10%), venom hyaluronidase (1–2%) and the small disulfide-rich peptides apamin (3%) and mast cell-degranulating (MCD)-peptide (2%)[4]. Other reported components are present in trace amounts.

[6] = tested on: mouse dorsal root ganglion (DRG) cells; experiment: Calcium imaging assay of mouse DRG neurons; format: cell-based
Experimental: Figure 5 Pain-causing effects of X. aruana venom components. (a,b) Application of XYTX1-Xa1a (10 μM) to DRG cells produced an immediate and sustained, non-cell-specific increase in [Ca^2+]i. (c) Potency of XYTX1-Xa1a and melittin in F11 cells, as monitored by changes in [Ca^2+]i. (d–f) The increase in [Ca^2+]i caused by XYTX1-Xa1a was potentiated by the presence of venom PLA2 (1 µM), but not XYTX2-Xa2a (1 μM). **P < 0.01 (unpaired t-test). […] Data are expressed as mean ± SEM (n = 3–6). […] Data are expressed as mean ± SEM (n = 3–6). *P < 0.05; **P < 0.01; ****P < 0.0001 (one way-ANOVA with Tukey’s multiple comparisons).
DRG cells were isolated from 4- to 6-week-old-male C57BL/6 mice that were purchased from the Animal Resources Centre (WA, Australia). DRGs were dissociated, then cells were plated in Dulbecco’s Modified Eagle’s Medium (DMEM; Gibco, MD, USA) containing 10% fetal bovine serum (FBS) (Assaymatrix, VIC, Australia) and penicillin/streptomycin (Gibco) on a 96-well poly-D-lysine-coated culture plate (Corning, ME, USA) and maintained overnight. Cells were loaded with Fluo-4 AM calcium indicator, according to the manufacturer’s instructions (ThermoFisher Scientific, MA, USA). After loading (1 h), the dye-containing solution was replaced with assay solution (1× Hanks’ balanced salt solution, 20 mM HEPES). Images were acquired at 10× objective at 1 frame/s (excitation 485 nm, emission 521 nm). Fluorescence corresponding to [Ca^2+]i of ~ 250 cells per experiment was monitored in parallel using an Nikon Ti-E Deconvolution inverted microscope, equipped with a Lumencor Spectra LED Lightsource. Baseline fluorescence was monitored for 30 s. At 30 s, assay solution was replaced with either assay solution, or assay solution containing venom PLA2 (1 µM) or XYTX2-Xa2a (1 µM), then at 1 min with XYTX1-Xa1a (in assay solution ± venom PLA2 (1 µM) or XYTX2-Xa2a (1 µM)) and monitored for 2 min before being replaced with assay solution and then KCl (30 mM; positive control). Experiments involving the use of mouse tissue were approved by the University of Queensland Animal Ethics Committee (UQ AEC; approval number TRI/IMB/093/17).
Data were plotted and analysed using Prism v9.0.0 (GraphPad Software, San Diego, CA, USA). For calcium imaging experiments of mouse DRG neurons and F11 cells, treatment groups were compared using unpaired t-tests. For analysis of spontaneous pain, sum of pain behaviour counts at 30 min of treatment groups were compared using one-way ANOVA with Tukey’s multiple comparisons test. Statistical significance was defined as P < 0.05. All data are presented as mean ± SEM.

[7] = tested on: mice; format: in vivo, male C57BL/6J mice
[8] = tested on: Shaker-like voltage-gated potassium (KV) channel KV1.1; conditions: cited from earlier work
[9] = tested on: Shaker-like voltage-gated potassium (KV) channel KV1.2; conditions: cited from earlier work
[10] = tested on: mammalian small conductance calcium-activated potassium (KCa, SK) channel KCa2.2; conditions: cited from earlier work
From the text: XYTX2-Xa2a is similar in sequence to Bombus and Apis MCD-peptides and apamin. Apamin is a blocker of the mammalian small conductance calcium-activated potassium (KCa, SK) channel KCa2.2[20], while Apis MCD peptide is a blocker of Shaker-like voltage-gated potassium (KV) channels KV1.1 and KV1.2[21]. We hypothesised that XYTX2-Xa2a might share similar activity. Thus, we tested XYTX2-Xa2a for activity on human KV1.1, KV1.2, KV1.3, KCa2.1 and KCa2.2.

Compound: CC[C@H](C)[C@H](NC(=O)CN)C(=O)NCC(=O)N[C@@H](C)C(=O)N[C@H](C(=O)N[C@@H](CC(C)C)C(=O)N[C@@H](CCCCN)C(=O)N[C@H](C(=O)N[C@@H](CC(C)C)C(=O)N[C@H](C(=O)N[C@H](C(=O)NCC(=O)N[C@@H](CC(C)C)C(=O)N1CCC[C@H]1C(=O)N[C@@H](C)C(=O)N[C@@H](CC(C)C)C(=O)N[C@H](C(=O)N[C@@H](CO)C(=O)N[C@@H](Cc1c[nH]c2ccccc12)C(=O)N[C@H](C(=O)N[C@@H](CCCCN)C(=O)N[C@@H](CCCNC(=N)N)C(=O)N[C@@H](CCCCN)C(=O)N[C@@H](CCCNC(=N)N)C(=O)N[C@@H](CCC(N)=O)C(=O)N[C@@H](CCC(N)=O)C(N)=O)[C@@H](C)CC)[C@@H](C)CC)[C@@H](C)O)[C@@H](C)O)C(C)C)C(C)C [melittin]
- leak current in HEK293AD cells ([1]; 10 μM melittin, 2 min after addition, n = 5 cells, Fig. S4): causes a leak current in HEK293AD cells
- EC50 [2]: 1.2 ± 0.1 µM
- pain behaviours on co-injection with venom PLA2 [3]: potentiated by co-injection with 20 pmol venom PLA2
- spontaneous pain behaviours ([3]; shallow intraplantar): caused spontaneous pain behaviours
- paw swelling [4]: caused paw swelling
- pore formation [5]: can form pores in cell membranes

Compound: GFLSILKKLPLILKHLP-NH2 [XYTX1-Xa1a]
- leak current at + 60 mV ([1]; 30 μM, 4 min after application, holding potential 0 mV, mean ± SEM, n = 6 cells, negative control ECS 0.08 ± 0.02 nA (n = 5 cells)): 3.3 ± 0.6 nA
- neurons with increase of [Ca2+]i ([6]; 10 μM (Fig. 5 legend), alone, mean ± SEM): 49.4 ± 3.2%
- neurons activated, in the presence of XYTX2-Xa2a ([6]; with XYTX2-Xa2a (1 μM), mean ± SEM): 45.8 ± 5.5%
- cell lysis in the presence of venom PLA2 ([6]; with venom PLA2 (1 µM), leakage of dye into extracellular media): increased cell lysis
- neurons activated, in the presence of venom PLA2 ([6]; with venom PLA2 (1 µM), mean ± SEM): 93.2 ± 6.5%
- EC50 [2]: 5.2 ± 0.7 µM
- pain behaviours on co-injection with venom PLA2 [3]: increased (frequency and duration)
- spontaneous pain behaviours ([3]; shallow intraplantar): caused spontaneous pain behaviours
- paw swelling [4]: caused paw swelling

Compound: MCD-peptide: mast cell-degranulating (MCD)-peptide of A. mellifera (Uniprot: P01499), purchased from Alomone labs (IKCNCKRHVIKPHICRKICGKN; UniProt P01499 28-49, looked up)
- pain behaviour counts versus control ([3]; mouse, in vivo): not different to control
- paw-withdrawal threshold to a mechanical stimulus versus negative control (saline) ([7]; mouse, in vivo): no difference to negative control (saline) injection
- block of KV1.1 [8]: blocker
- block of KV1.2 [9]: blocker

Compound: apamin: A. mellifera apamin (Uniprot: P01500), purchased from Alomone labs (CNCKAPETALCARRCQQH; UniProt P01500 28-45, looked up)
- pain behaviour counts versus control ([3]; 2 pmol alone, shallow intraplantar): not different to control
- paw-withdrawal threshold to a mechanical stimulus versus negative control (saline) ([7]; 2 pmol/paw intraplantar, 1 and 4 h): no difference to negative control (saline) injection
- block of mammalian KCa2.2 [10]: blocker

Reference: PMC9780326, “Venom composition and pain-causing toxins of the Australian great carpenter bee Xylocopa aruana” (Scientific Reports, 2022)
